# According to publication PMC12428554, “Anti-HIV and Antimicrobial Activity of 7-Hydrazino-8-hydroxyquinoline-Based Aromatic Hydrazones” (International Journal of Molecular Sciences, 2025):
# “And” between values parts separate entries of the source, which are not always exact repeats. Equal values may be shown once.
# Columns and labels:
# [1] = test system: HIV-1 (subtype B) in MT-4 cells; experiment: Antigen p24 assay in HIV-infected MT-4 cells; type: cell-based; details: Human immunodeficiency virus 1, MT4; HIV-1 899A strain (subtype B), third day after infection
# Procedure: The human MT-4 lymphoblastoid cells were cultured in RPMI 1640 medium supplemented with 10% fetal bovine serum (FBS) (HyClone, Logan, UT, USA), 2 mM L-glutamine, 50 U/mL penicillin, and 50 μg/mL streptomycin in a humidified atmosphere of 5% CO2 at 37 °C. The cells were re-seeded at a density of 3.0 × 10^5 cells/mL every three days. The HIV-1_899A strain (subtype B) was used from the collection of human immunodeficiency virus strains of the D.I. Ivanovsky Institute of Virology, N. F. Gamaleya National Research Center of Epidemiology and Microbiology, Ministry of Health, Moscow, Russia. The commercial drug Efavirenz (EFV), a non-nucleoside inhibitor of HIV reverse transcriptase, was used as a positive control. HIV-1 was added to the cells at 0.1 CCID50 (50% cell culture infectious dose). The cells, both infected and non-infected, were then incubated at 37 °C in a humidified atmosphere containing 5% CO2 for a 40 min period, after which the cells were washed twice in serum-free RPMI 1640 and plated into the wells of a 96-well plate. The tested compounds were then added to the cells at concentrations from 0.5 μM to 100 μM. The final ethanol concentration was 1% v/v. On the third day after infection, the culture fluid was collected for determining the amount of p24 antigen by enzyme immunoassay analysis using a commercial test system kit (Genscreen ULTRA HIV Ag-Ab, Bio-Rad, Hercules, CA, USA). Cell viability was measured by MTT assay.
# [2] = test system: C. albicans ATCC 10231; experiment: MIC by twofold serial dilution, C. albicans; type: cell-based; details: Candida albicans, ATCC10231; 24 h, 35 °C; read-out: MIC (Mean ± SE) C. albicans ATCC 10231
# Procedure: Candida albicans ATCC 10231, Pseudomonas aeruginosa ATCC 27853, and Staphylococcus aureus ATCC 29213 strains were obtained from the American Type Culture Collection (ATCC; Rockville, MD, USA). The subculture and inoculum preparation were performed according to CLSI M27-A3 for C. albicans on yeast extract peptone dextrose (YPD) agar (HiMedia, Mumbai, Maharashtra, India) and RPMI-1640 medium (PanEco, Moscow, Russia) with MOPS (3-(N-morpholino) propanesulfonic acid, >99.5%; PanEco, Moscow, Russia), and M7-A11 for P. aeruginosa and S. aureus on Mueller-Hinton agar (MHA; HiMedia, Mumbai, Maharashtra, India) and Mueller-Hinton broth (MHB; HiMedia, Mumbai, Maharashtra, India). The stock cell concentrations of fungus and bacteria were 1 × 10^6 and 1 × 10^8 cells/mL, respectively. A working suspension of C. albicans (5.0 × 10^2 cells/mL) was prepared by two-step dilution of the broth concentration with the RPMI-1640 medium. Assay suspensions of P. aeruginosa and S. aureus (1.0 × 10^6 cells/mL) were prepared by diluting the concentration with Mueller-Hinton broth (HiMedia, Mumbai, Maharashtra, India). Amphotericin B (Sigma-Aldrich, Burlington, MA, USA) and gentamicin (Sigma-Aldrich, Burlington, MA, USA) were used as secondary pharmaceutical standards.
# The minimum inhibitory concentration (MIC) was determined by the twofold serial dilution method, according to CLSI M27-A3 [33] and M07-A11 [34], in three independent experiments with four replicates each. Amphotericin B was used as a positive control for fungus; gentamicin was used as a positive control for bacteria. Stock solutions except gentamicin were prepared in DMSO at a concentration of 6400 μg/mL. Gentanicin was solubilized in sterile water at a concentration of 1280 μg/mL. Stock solutions of the tested substances were diluted to the final concentrations in the assay medium and 100 μL of each sample was added to the wells of 96-well plates, and then 100 μL of inoculum was added. Rows 11 and 12 were left for the negative control (medium with inoculum without the drug) and sterility control. The plates were incubated for 24 h at 35 °C in the case of C. albicans and at 37 °C in the case of P. aeruginosa and S. aureus. The tested concentration for gentamicin ranged from 0.0625 to 32 μg/mL; for other compounds, it ranged from 0.125 to 64 μg/mL. The MIC value was determined using spectrophotometer. The MIC was taken to be the lowest drug concentration that caused complete inhibition of microorganism growth compared to the control. The final MIC values were reported as the means with standard error (SE). Standard errors for µg/mL values less than 0.01 were excluded; standard errors for µM values less than 0.1 were excluded (Table 3).
# [3] = molecular target: T1, recombinant HIV-1 Integrase (strand transfer) (Human immunodeficiency virus type 1 group M subtype B, UniProt P04585); experiment: HIV integrase strand transfer inhibition; type: biochemical; details: for IC50: 100 nM integrase, 37 °C, 2 h
# T1 construct: The recombinant HIV-1 Integrase (In) was isolated from the Rosetta Escherichia coli producer strain; made in house; host or cells: Escherichia coli Rosetta
# Procedure: The recombinant HIV-1 Integrase (In) was isolated from the Rosetta Escherichia coli producer strain and purified without the addition of a detergent as described previously. Radioactive ^32P label was introduced at the 5′-end of the oligonucleotide. Testing of the compounds was performed according to the previously published procedure. Briefly: 5 nM ^32P-labeled 21 mer DNA duplex (5′-[…]-3′ and 5′-[…]-3′) for 3′-processing reaction or 10 nM 19/21 mer DNA duplex (5′-[…]-3′ and 5′-[…]-3′) for strand transfer was incubated in 20 µL of the buffer (20 mM HEPES, pH 7.2, 7.5 mM MgCl2, 1 mM DTT) in the presence of 100 nM integrase and increasing concentrations of the inhibitor at 37 °C for 2 h. The reaction products were assayed by 20% polyacrylamide gel electrophoresis (PAGE) with 7 M urea. The result was visualized by radioautography on a Typhoon FLA 9500 PhosphorImager (GE Healthcare Technologies, Chicago, IL, USA). The counting of radioautograms was performed using QuantityOne 4.6.6 software (Bio-Rad, Hercules, CA, USA). Calculation of IC50 parameters was carried out by Prism 8.0.1 software (GraphPad Software, San-Diego, CA, USA).
# [4] = Sulforhodamine B (SRB) cytotoxicity assay; type: cell-based; details: human, Huh-7.5 cells
# Procedure: Huh7.5 cells were grown in the DMEM/F12 (2:1) medium supplemented with 10% FBS (BioSera, Cholet, France), 2 mM L-glutamine, 100 U/mL penicillin, and 100 µg/mL streptomycin in the presence of 5% CO2 at 37 °C. Cells were re-seeded every three days at a ratio of 1:3 or 1:5. After an incubation period, cell monolayers were fixed with 10% (w/v) trichloroacetic acid and stained for 30 min by adding 100 µL of 0.057% (w/v) SRB solution to each well, after which the excess dye is removed by washing repeatedly with 1% (v/v) acetic acid. The protein-bound dye is dissolved in 10 mM Tris-base solution with pH 10.5 for OD determination using a Tecan Spark multimode microplate reader via absorbance at 510 nm.
structure (smiles),measurement,setting,value
"Oc1c(N/N=C/c2ccccc2)ccc2cccnc12 [Compound I, 7-(2-Benzylidenohydrazinyl)-8-hydroxyquinoline]",IC50,[1],0.77 ± 0.03 µM
same,MIC,[2],4 µg/mL and 15.2 µM
same,"inhibition of strand transfer, in words",[3],weak activity
same,IC50,[3],160 ± 50 µM
same,CC50,[4],59.5 ± 12.5 µM
"O=[N+]([O-])c1ccc(/C=N/Nc2ccc3cccnc3c2O)cc1 [II, 7-(4-Nitrobenzylidenohydrazinyl)-8-hydroxyquinoline]",IC50,[1],1.2 ± 0.08 µM
same,MIC,[2],13 µM and 4 µg/mL
same,"inhibition of strand transfer, in words",[3],ineffective
same,IC50,[3],> 200 µM
same,CC50,[4],8 ± 0.1 µM
"O=[N+]([O-])c1cccc(/C=N/Nc2ccc3cccnc3c2O)c1 [III, 7-(3-Nitrobenzylidenohydrazinyl)-8-hydroxyquinoline]",IC50,[1],1.4 ± 0.33 µM
same,MIC,[2],11.3 µg/mL and 36.8 µM
same,"inhibition of strand transfer, in words",[3],weak activity
same,IC50,[3],190 ± 60 µM
same,CC50,[4],7.1 ± 0.4 µM
"COc1ccc(/C=N/Nc2ccc3cccnc3c2O)cc1 [IV, 7-(4-Methoxybenzylidenohydrazinyl)-8-hydroxyquinoline]",IC50,[1],0.67 ± 0.05 µM
same,MIC,[2],8 µg/mL and 27.3 µM
same,"inhibition of strand transfer, in words",[3],weak activity
same,IC50,[3],150 ± 50 µM
same,CC50,[4],40 ± 0.2 µM
"Oc1c(N/N=C/c2ccc(Br)c(Br)c2)ccc2cccnc12 [V, 7-(3,4-Dibromobenzylidenohydrazinyl)-8-hydroxyquinoline]",IC50,[1],< 0.5 µM
same,MIC,[2],15.3 µg/mL and 36.3 µM
same,"inhibition of strand transfer, in words",[3],ineffective
same,IC50,[3],> 200 µM
same,CC50,[4],6.9 ± 0.3 µM
"Oc1c(N/N=C/c2ccc(F)cc2)ccc2cccnc12 [VI, 7-(4-Fluorobenzylidenohydrazinyl)-8-hydroxyquinoline]",IC50,[1],< 0.5 µM
same,MIC,[2],3.8 µg/mL and 13.6 µM
same,IC50,[3],~40 µM and 40 µM
same,CC50,[4],7 ± 0.2 µM
